Experimental data taken from US20220202964A1, “HEPARANASE COMPOUNDS AND METHODS OF USE” (University of Florida Research Foundation, Incorporated, priority 2019, published 2022).
Read-outs that look alike come from different tables or passages of the source.

Columns and labels:
[1] = stated for comparison; cited from earlier work
[2] = pH profile of fluorescence / pKa; format: physicochemical; conditions: hydrolytic product of HADP, fluorescence vs pH
Method: So, pH profiles of the fluorophore DiFMU and Compound 1 (HADP) were evaluated. […] In contrast, the pKa of 4-methylumbelliferone is ca. 7.8. […] Moreover, the introduction of the fluorine substituents increased the quantum yield and improved the photostability, enabling highly sensitive detection for heparanase.

[3] = biological target: T1, heparanase (Homo sapiens, UniProt Q9Y251); conditions: substrate for heparanase, comparison value; cited from earlier work
T1 sequence (Q9Y251 36-543): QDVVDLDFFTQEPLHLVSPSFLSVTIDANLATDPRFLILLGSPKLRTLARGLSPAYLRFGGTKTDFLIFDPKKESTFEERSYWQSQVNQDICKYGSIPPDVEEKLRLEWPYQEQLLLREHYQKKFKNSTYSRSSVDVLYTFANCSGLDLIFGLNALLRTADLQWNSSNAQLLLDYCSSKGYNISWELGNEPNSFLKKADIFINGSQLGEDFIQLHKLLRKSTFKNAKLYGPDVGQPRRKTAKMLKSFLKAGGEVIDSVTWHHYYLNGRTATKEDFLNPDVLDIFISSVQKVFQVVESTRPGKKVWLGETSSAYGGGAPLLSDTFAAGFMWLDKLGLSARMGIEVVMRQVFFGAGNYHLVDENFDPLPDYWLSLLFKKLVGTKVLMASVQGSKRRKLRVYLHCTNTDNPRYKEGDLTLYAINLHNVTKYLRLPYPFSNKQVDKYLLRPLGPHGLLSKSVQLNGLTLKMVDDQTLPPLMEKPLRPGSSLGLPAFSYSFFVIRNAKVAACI

[4] = biological target: T1, heparanase; test: Activation of compounds by recombinant heparanase (fluorescence response); format: biochemical; conditions: 5 μM compound, 1 μg heparanase, 40 mM NaOAc buffer (pH 5.0), 37° C., λex/em=365 nm/455 nm
Method: To a solution of 20 μL, of 50 μM compound 1 (HADP) and 160 μL 40 mM NaOAc (pH=5.0) was added 20 μL, 0.1 μg/μL heparanase to obtain 5 μM 1 (HADP) with 2 μg heparanase solution. After incubation at 37° C. for 2 h, the reaction solution was transferred to quartz cuvettes to measure absorbance or fluorescence. Absorbance spectrum scan range from 250 nm to 500 nm (1 nm increment). fluorescence spectrum setting: λex=365 nm, Slit Width 2.5 nm. Emission was record from 400 nm to 600 nm, Slit Width 5 nm. Absorption spectra were recorded on Shimadzu UV-2700 UV-VIS Spectrophotometer. Fluorescence spectra were recorded on Fluorolog TAU-3 Spectrofluorometer with a xenon lamp (Jobin Yvon-Spex, Instruments S. A., Inc.)
Fluorescence micro cells was charged with 20 μL, of 50 μM compound 1 (HADP) and 160 μL 40 mM NaOAc (pH=5.0). Then 20 μL, 0.05 μg/μL heparanase was added to the above solution. Fluorescence spectra were recorded from 0 min to 3 h. fluorescence spectrum setting: λex=365 nm, Slit Width 2.5 nm. Emission was record from 400 nm to 600 nm, Slit Width 5 nm.
To a solution of 20 μL, of 50 μM each compound and 160 μL, 40 mM NaOAc (pH=5.0) was added 20 μL, 0.05 μg/μL heparanase to obtain 5 μM each compound with 1 μg heparanase solution in 96-well microplate. Each compound was performed in triplicate. Then the microplate was sealed with sealing film and incubated at 37° C. Fluorescence intensity was recorded on Spectramax M5 Multimode plate reader (Molecular Devices, USA) at each timepoint. λex/em=365 nm/455 nm.
5 μM compound 1 (HADP) was incubated with various biological species at the indicated amount/concentration in 96-well microplate. Cysteine (5 mM), Glutathione (5 mM), H2O2 (100 μM), Esterase, Chondroitinase ABC, Hyaluronidase, Lysozyme, β-Glucuronidase, β-Glucosidase (5 μg each) and heparanase (2 μg). For Chondroitinase ABC and Hyaluronidase, 50 μg was also tested. Each sample was performed in triplicates. Then the microplate was sealed with sealing film and incubated at 37° C. for 4 hours. Fluorescence intensity was recorded on Spectramax M5 Multimode plate reader (Molecular Devices, USA). λex/em=365 nm/455 nm.

[5] = biological target: T1, heparanase; test: HPLC analysis of compounds 1-4 with heparanase; format: biochemical; conditions: 5 μM, heparanase 1 μg, 4 hours, 37° C., NaOAc pH 5.0
Method: Heparanase (1 μg, 20 μL) was added to the compounds 1-4 solution (180 μL, 5 μM) in 40 mM NaOAc buffer (pH 5.0) and the mixture was incubated for 4 hours at 37° C. The resulting mixtures were injected into HPLC for analysis. HPLC analysis was performed under the following conditions—mobile phase A: water with 0.1% TFA; B: acetonitrile with 0.1% TFA; 0-20 min: gradient elution, 25-95% B. The trace was monitored by DAD detector at 315 nm.

Compound | fluorescence response towards heparanase [4] | cleavage by heparanase (HPLC trace) [5] | also measured
Cc1cc(=O)oc2cc(O)ccc12 [4-methylumbelliferone] | – | – | pKa [1]: ca. 7.8
Cc1cc(=O)oc2c(F)c(O)c(F)cc12 [DiFMU, 6,8-difluoro-7-hydroxy-4-methylcoumarin, reference compound] | – | – | pKa [2]: ~4.7
CO[C@H]1O[C@H](COS(=O)(=O)O)[C@@H](O[C@@H]2O[C@@H](C(=O)O)[C@@H](O[C@H]3O[C@H](COS(=O)(=O)O)[C@@H](O[C@@H]4O[C@H](C(=O)O)[C@@H](O[C@H]5O[C@H](COS(=O)(=O)O)[C@@H](O)[C@H](O)[C@H]5NS(=O)(=O)O)[C@H](O)[C@H]4O)[C@H](OS(=O)(=O)O)[C@H]3NS(=O)(=O)O)[C@H](O)[C@H]2OS(=O)(=O)O)[C@H](O)[C@H]1NS(=O)(=O)O [fondaparinux] | – | – | Km [3]: 46 µM
(2S,3S,4R,5R,6S)-3-(((2R,3R,4R,5S,6R)-4,5-dihydroxy-6-((sulfooxy)methyl)-3-(((E)-trioxidaneyl-14-sulfaneylidene)amino)tetrahydro-2H-pyran-2-yfloxy)-4,5-dihydroxy-6-((4-methyl-2-oxo-2H-chromen-7-yl)oxy)tetrahydro-2H-pyran-2-carboxylic acid [Compound 4] | could not be activated by heparanase | could not be cleaved by heparanase | –
(2S,3S,4R,5R,6S)-6-((8-(difluoromethyl)-4-methyl-2-oxo-2H-chromen-7-yl)oxy)-3-(((2R,3R,4R,5S,6R)-3-((hydrosulfonyloxy)amino)-4,5-dihydroxy-6-(hydroxymethyl)tetrahydro-2H-pyran-2-yl)oxy)-4,5-dihydroxytetrahydro-2H-pyran-2-carboxylic acid [Compound 3] | very slight fluorescence enhancement | could not be cleaved by heparanase | –
